Experimental data as given in patent publication US12678511B2, “Peptide and use thereof” (Kansai Medical University Educational Corgoration, priority 2019, dated 2026).
Peptide text beside a SMILES is read from it. * marks the point of attachment. 5FAM = O=C1OC2(c3ccc(O)cc3Oc3cc(O)ccc32)c2ccc(C(=O)*)cc21

How the values were obtained:
[1] = tested on: cancer stroma of the stomach scirrhous carcinoma (HSC58 cells and hMSC); assay: Absorption into cancer stroma of scirrhous stomach cancer mouse model; format: in vivo; conditions: 300 μg intravenous, 60 minutes after injection, FIG. 10B
Text: Stomach poorly differentiated scirrhous adenocarcinoma, which is an example of a typical scirrhous carcinoma, is classified by visual classification into type 4 stomach cancer, and this type 4 stomach cancer has an extremely poor prognosis, with a five-year survival rate of about at least 4% but not more than 16%. Accordingly, in order to investigate the application of [FAM]-tandem MSCPP106 to the CAF that develop in the scirrhous stroma of cancer other than pancreatic cancer, a scirrhous stomach cancer mouse transplanted model was produced, and the absorption into scirrhous cancer stroma other than pancreatic cancer was investigated. With the exceptions of using human stomach poorly differentiated adenocarcinoma HSC58 cells instead of the BxPC3 cells, and rearing the mouse for 40 days from the time of cell injection, the same method as Example 7 was used to obtain a scirrhous stomach cancer mouse model. The HSC58 cells are a low metastatic human scirrhous stomach cancer cell line. Subsequently, [FAM]-tandem MSCPP106 (300 μg) was injected intravenously into the obtained scirrhous cancer mouse model, and the in-vivo absorption pharmacokinetics of the peptide 60 minutes after the intravenous injection were analyzed by tissue analysis of the freshly dissected specimen of the peptide-administered mouse. […]

[2] = tested on: cancer stroma (fibrous stroma) of tumor tissue, BxPC3 cells and hMSC transplanted; assay: Selective absorption in scirrhous pancreatic cancer model mouse (tissue analysis); format: in vivo; conditions: 200 μg intravenous, 30 minutes after injection, FIG. 7B, 7C
Text: A scirrhous pancreatic cancer model mouse having scirrhous carcinoma that forms abundant cancer stroma was produced in accordance with the method disclosed in Reference Document 1 (Saito K et al., “Stromal mesenchymal stem cells facilitate pancreatic cancer progression by regulating specific secretory molecules through mutual cellular interaction.”, Journal of Cancer, Vol. 9, No. 16, pp. 2916-2929, 2018). Specifically, 6-week old NOD/SCID mice (CLEA Japan Inc., Japan) were raised under pathogen-free conditions. A cell mixture containing BxPC3 cells (1×10^5 cells) and hMSC (1×10^5 cells) was injected either subcutaneously or into the abdominal cavity of each mouse. By raising the mice for 6 weeks from the time of cell injection, scirrhous pancreatic cancer model mice were obtained having an abundantly developed cancer stroma that imitates the tissue in a human pancreatic cancer patient (see FIG. 7A).
[FAM]-tandem MSCPP106 (200 μg) was injected intravenously into each obtained scirrhous carcinoma model mouse. Subsequently, the pharmacokinetics of the peptide 30 minutes after the intravenous injection were analyzed by tissue analysis of the freshly dissected specimen of the peptide-administered mouse. FIG. 7B is a series of bright-field images (left) and fluorescent images (right) of various tissues and tumor tissues resected from the scirrhous carcinoma model mouse. […]

absorption into the cancer stroma of the stomach scirrhous carcinoma [1]: strong selective absorption | absorption into the cancer stroma (fibrous stroma) inside tumor tissue [2]: strong absorption
SMILES: CC(C)C[C@H](NC(=O)[C@H](Cc1c[nH]cn1)NC(=O)[C@H](CCCNC(=N)N)NC(=O)[C@H](Cc1ccccc1)NC(=O)[C@H](CC(C)C)NC(=O)[C@H](CCC(=O)O)NC(=O)[C@H](C)NC(=O)[C@H](CS)NC(=O)[C@H](CCCCN)NC(=O)CNC(=O)[C@H](CC(C)C)NC(=O)[C@H](Cc1c[nH]cn1)NC(=O)[C@H](CCCNC(=N)N)NC(=O)[C@H](Cc1ccccc1)NC(=O)[C@H](CC(C)C)NC(=O)[C@H](CCC(=O)O)NC(=O)[C@H](C)NC(=O)[C@H](CS)NC(=O)[C@H](CCCCN)NC(=O)c1ccc2c(c1)C(=O)OC21c2ccc(O)cc2Oc2cc(O)ccc21)C(=O)O [[FAM]-tandem MSCPP106] (5FAM-KCAELFRHLGKCAELFRHL-OH)
